Test results from patent US20240238235A1, “METHODS AND COMPOSITIONS FOR TREATING PULMONARY ALVEOLAR PROTEINOSIS RELATED TO MARS MUTATIONS” (INSTITUT NATIONAL DE LA SANTÉ ET DE LA RECHERCHE MÉDICALE, priority 2021, published 2024).
Like-named read-outs stand apart in the source and are kept apart here.

How the values were obtained:
[1] = test system: patients presenting pulmonary alveolar proteinosis due to the double mutation Ala393Thr/Ser567Leu in MARS
Source text: (§1) The MetPAP study was registered at clinicaltrials.gov (NCT03887169). […] The secondary objectives were to determine the efficacy of such treatment.

[2] = Protocol: The level of methioninemia in a healthy subject should be measured on an empty stomach and should be less than 45 μM. Typically, in the subject affected by MARS mutations, the level of methioninemia to reach efficacy should be in the range of 45-500 μM (>45 μM at residual dosage and <500 μM at peak dosage 1 hour after the dose has been taken). The level of methioninemia is measured with the following methods. […] For accurate quantification, stable isotope internal standards of the same structure for each metabolite (Eurisotop, Saint Aubin, France) are added to samples before protein precipitation. Internal standards are labeled on all carbons and nitrogen(s) with following exceptions: glutamine 2,3,3,4,4-D5, asparagine ^13C4, tryptophan Indole-D5, citrulline ^13CD4 and homocysteine 3,3,3′,3′,4,4,4′,4′-D8. Samples are first derivatized using the AccQ Tag™ Ultra (Waters Corporation, Milford, MA, USA) according to manufacturer recommendations. Amino acid separation is performed with an Acquity™ UPLC system using a CORTECS™ UPLC C18 column (1.6 μm, 2.1×150 mm) coupled to microTQS™ tandem mass spectrometer (Waters Corporation, Milford, MA, USA). The run time for quantification of all amino acids is 12 min.
as §1
The frequency of medication was based on the known half-life of the moleculel and the peak was determined by performing kinetic measurements on the patients during the first day of supplementation.

[3] = test system: peripheral monocytes; details: control = 100%
Protocol: Peripheral monocyte and phagocyte functions were assessed by quantifying ROS production. Whole blood collected from lithium heparinized tubes (500 μl) was incubated for 15 min at 37° C. with dihydrorhodamine 123[…] (Sigma-Aldrich). Samples were then treated for 1 h at 37° C. with GM-CSF (10 ng/ml; R&D Systems), followed by stimulation for 5 min with fMLF (10^-5M; Sigma-Aldrich). The reaction was stopped by adding 1 ml ice-cold lysis solution (BD Biosciences) and incubating for 5 min on ice. Samples were then washed with PBS (Sigma-Aldrich) and the pellets resuspended in 300 μl FacsFlow solution (BD Biosciences). Samples were analyzed by flow cytometry on a FACSCanto II (BD Biosciences). Phagocytes (neutrophils and monocytes) were selected on the FSC-SSC dot plot. Events (50,000) were recorded at a constant PMT voltage. Results are expressed as the index of stimulation (MIF DHE GM-CSF+fMLP/DHE GM-CSF alone).

[4] = test system: pulmonary alveolar proteinosis related to MARS mutations; details: P1, 3 and 4
Source text: We compared the course of treated patients to that of patients reported by Enaud et al. 2 as well as seven patients diagnosed since this publication. Data collection and analysis for these patients were approved by the Institutional Review Board of the French Respiratory Society (CEPRO2013-019) and the CPP Île de France II (CPP2013-12-03 SC).
Several parameters were compared between treated patients and HC. We computed the difference between the values for each continuous variable at inclusion and at last follow-up for each treated patient, as well as between diagnosis and six months to one year from diagnosis for the HC. Differences were compared between groups using Mann-Whitney tests. For each categorical variable (i.e., weaning from oxygen and enteral nutrition), we compared the proportion of patients who were weaned from such support at the second assessment between groups using Fisher's exact test. A p-value<0.05 was considered statistically significant.

[5] = test system: pulmonary alveolar proteinosis related to MARS mutations
Source text: Eight patients started the treatment from the age of 11 to 24 years old. […] In the 7 seven remaining patients, treatment was started less than one year ago and will be assessed in the next months.

[6] = test system: yeast; details: methionine supplementation in the culture medium; cited from earlier work
[7] = test system: patients with MAT I/III deficiency; details: large series of patients with MAT I/III deficiency; cited from earlier work
[8] = test system: subjects receiving a loading dose of methionine; details: cited from earlier work

CSCC[C@H](N)C(=O)O [methionine, L-methionine]
elevated transaminases (multiple of normal value) ([1]; P3, D21, judged not attributable to a toxic effect of methionine): > 3 N
Tolerance of methionine supplementation ([1]; during the protocol and after): well tolerated
methioninemia at T0 (residual) ([2]; P3, D21 of treatment): 42 µM
time of peak plasma methionine after taking the medication ([2]; kinetic study in the patients): 1 h
residual and peak plasma methionine values over 24-h periods, days and months ([2]; treatment every 6 h): reproducible residual and peak values
stimulation index relative to control (GM-CSF priming of ROS production by peripheral monocytes) ([3]; P1, after three months of treatment (M3)): 109%
stimulation index relative to control (GM-CSF priming of ROS production by peripheral monocytes) ([3]; P3, after three months of treatment (M3)): 73%
change M0 to M6-M12 of blood neutrophils, CRP, albumin and GGT versus HC ([4]; p=0.011, 0.039, 0.006, 0.038): greater improvement
patients weaned off oxygen at the second assessment ([4]; vs 1/15 HC, p=0.056): 2/3
patients weaned off enteral nutrition at the second assessment ([4]; vs none of 18 HC, p=0.014): 2/3
clinical outcome ([5]; 1 patient, treatment started 2 years ago): improve clinical respiratory status (regression of dry cough and exercise dyspnoea), to improve lung function (gain in forced vital capacity and diffuse capacity of carbon monoxide), and to improve chest CT scan (regression of ground glass opacities, stabilization of the fibrosis)
clinical outcome ([5]; 2 patients treated between 1 and 2 years of age): stop whole lung lavages, to “clean” the chest CT scan from the alveolar consolidations and stop the progression of fibrotic lesions, to catch-up on weight and to normalize liver blood tests and inflammatory markers
clinical outcome ([5]; 4 additional patients treated from diagnosis (3 to 6 months)): stop whole lung lavages or even to avoid it, to normalize the chest CT scan after 3 months of treatment, to normalize the liver blood tests and inflammatory markers, to catch-up on weight, and to wean off the oxygen and nutritional support initially required
growth and enzyme activity in yeast impaired by Ala393Thr/Ser567Leu mutations [6]: restored
mean plasma methionine values at which CNS abnormalities were observed [7]: > 800 µM
adverse events (arterial blood pressure change, nausea and vomiting, dizziness, polyuria) [8]: mild and always transient
